# Data from patent publication US20240270811A1, “Glycosylated Neuropeptide Derivative, Pharmaceutical Composition, Intranasal/Nasal Drop Formulation, and Use of Pharmaceutical Composition” (Tokyo University of Science Foundation, priority 2021, published 2024).
# Where no end group is shown, it is not given here. The star is where a group is joined. X1 = CC(=O)N[C@@H]1[C@@H](O)[C@H](O[C@@H]2O[C@H](CO)[C@@H](O[C@@H]3O[C@H](CO[C@H]4O[C@H](CO)[C@@H](O)[C@H](O)[C@@H]4O[C@@H]4O[C@H](CO)[C@@H](O[C@@H]5O[C@H](CO[C@]6(C(=O)O)C[C@H](O)[C@@H](NC(C)=O)[C@H]([C@H](O)[C@H](O)CO)O6)[C@H](O)[C@H](O)[C@H]5O)[C@H](O)[C@H]4NC(C)=O)[C@@H](O)[C@H](O[C@H]4O[C@H](CO)[C@@H](O)[C@H](O)[C@@H]4O[C@@H]4O[C@H](CO)[C@@H](O[C@@H]5O[C@H](CO[C@]6(C(=O)O)C[C@H](O)[C@@H](NC(C)=O)[C@H]([C@H](O)[C@H](O)CO)O6)[C@H](O)[C@H](O)[C@H]5O)[C@H](O)[C@H]4NC(C)=O)[C@@H]3O)[C@H](O)[C@H]2NC(C)=O)[C@@H](CO)O[C@H]1NC(=O)C*
# Columns and labels:
# [1] = Solubility of GLP-2/GLP-1 derivatives with respect to aqueous medium (PBS); assay type: physicochemical; conditions: for solubility with respect to PBS (FIG. 1): freeze-dried 5-200 nmol/tube, PBS added, ultrasonic treatment, overnight, supernatant OD 280 nm
# Method: Samples were prepared by dispensing a Milli-Q aqueous solution of PAS-CPP-GLP-2 (no sugar), PAS-CPP-GLP-2 (5-sugar) or PAS-CPP-GLP-2 (11-sugar) to a microtube by an amount of 5 nmol/tube, 30 nmol/tube, 60 nmol/tube, 120 nmol/tube or 200 nmol/tube, and freeze-drying the same. The freeze-dried samples were added with […] of PBS (Dulbecco's Phosphate Buffered Saline; Sigma-Aldrich, herein after the same), subjected to ultrasonic treatment, and allowed to stand overnight. Thereafter, the concentration of the peptide was measured. Specifically, a supernatant obtained by centrifuging the sample suspension was subjected to the measurement of OD (280 nm) with a spectrometer (NanoDrop™ 2000c spectrometer; Thermo Fisher Scientific K.K.)
# Administration solutions were prepared by mixing a PAS-CPP-GLP-2 derivative (no sugar) or a PAS-CPP-GLP-2 derivative (11-sugar) with PBS. […] The concentration of each GLP-2 derivative was adjusted to 0.6 nmol/4 μL.
# (§1) The concentration of a PAS-CPP-GLP-2 derivative (no sugar) or a PAS-CPP-GLP-2 derivative (11-sugar) was adjusted to 3.0 nmol/4 μL.
# [2] = Migration to central nervous system, optical imaging of brain sagittal sections (ICG-labelled derivatives); assay type: in vivo, mouse; conditions: for fluorescence in brain section: 3.0 nmol/4 μL intranasal
# Method: Administration solutions were prepared by completely dissolving a PAS-CPP-GLP-2 derivative (no sugar) labelled with ICG or a PAS-CPP-GLP-2 derivative (11-sugar) labelled with ICG in DMSO, and adjusting the final concentration of DMSO to 16% by adding PBS.
# as §1
# After anesthetizing mice with isoflurane using an all-in-one small animal anesthetizer, the administration solutions or 16% DMSO as a control was intranasally administered to the mice by the amount of 2 μL per nose cavity, 4 μL in total.
# In order to observe the migration to the brain over time, the brain was isolated 5 minutes, 10 minutes, 20 minutes, 60 minutes and 90 minutes after the intranasal administration, respectively, and subjected to infiltration fixation with 4% paraformaldehyde (4% PFA) solution overnight. Subsequently, a sagittal section with a thickness of 2 mm at the left and the right from the center of the brain was prepared using a brain matrix (RBM-2000S, ASI). The section was placed in a dish and analyzed with an optical imaging apparatus (Clairvivo OPT plus, Shimadzu Corporation) at an excitation wavelength of 785 nm, fluorescence wavelength of 849 nm, and an exposure time: 6 seconds.
# [3] = Distribution in brain by immunostaining of frozen brain sections (Example 6); assay type: in vivo, mouse; conditions: 3.0 nmol/4 μL intranasal
# Method: The distribution in the brain of a glycosylated GLP-2 derivative (11-sugar) after intranasally administered was evaluated by preparing frozen brain sections and subjecting the same to immunostaining. The brain sections were prepared from tissues around the hippocampus (HIP), dorsomedial nucleus of the hypothalamus (DMH), olfactory bulb (OB), and pons/principal sensory nucleus of trigeminal nerve (Pr5). The olfactory bulb includes olfactory nerves, which are assumed to be a pathway for the migration of GLP-2.
# After anesthetizing 7-week-old male ddY mice with isoflurane using an all-in-one small animal anesthetizer, a 16% DMSO solution of a PAS-CPP-GLP-2 derivative (11-sugar) (3.0 nmol/4 μL) or 16% DMSO as a control was intranasally administered to the mice by the amount of 2 μL per nose cavity, 4 μL in total. The brain was isolated 5 minutes after the administration and 20 minutes after administration.
# The brain isolated 5 minutes after the intranasal administration was subjected to infiltration fixation with 4% PFA at 4° C. overnight without performing perfusion fixation. The isolation of the brain 20 minutes after the intranasal administration was performed by the following process.
# The mouse is fixed in a supine position under anesthesia with isoflurane, and the chest was incised. PBS and 4% PFA were perfused, in this order, from the left chamber of the heart throughout the whole body for fixing the tissue. The isolated brain was preserved in a 4% PFA solution. On the day following the isolation, the brain samples were substituted with 20% sucrose overnight (4° C.), and further with 30% sucrose overnight (4° C.). Thereafter, a frozen section with a thickness of 30 μm was prepared using a cryostat (CM3050S; Leica Microsystems).
# The frozen brain section was mounted on a slide glass, and a circle was drawn around the section with a liquid blocker. A blocking buffer was added inside the circle and the section was subjected to blocking for 30 minutes at room temperature. Thereafter, the section was added with a first antibody solution including a GLP-2 polyclonal antibody, diluted 200 times with a blocking solution, and subjected to incubation for 1 hour at room temperature. After washing three times with 1×PBS, the section was added with a second antibody solution including Alexa Fluor (trademark) 568 Goat Anti-Mouse IgG H&L, diluted 500 times with a BSA/PBS solution, and subjected to incubation for 1 hour at room temperature. After washing three times with 1×PBS, the section was mounted with ProLong (trademark) Diamond Antifade Mountant. After confirming the solidification of the mountant, the section was subjected to fluorescent observation and imaging with a confocal laser microscope (TCS SP8; Leica) and a software (Leica Application Suite X Software; Leica).
substance,measurement,setting,value
FFLIPKGRRRRRRRRGGHADGSFSDEMNTILDNLAARDFINWLIQTKITDC(X1)-OH [PAS-CPP-GLP-2 (11-sugar)],solubility in PBS,[1]; PBS,completely soluble in PBS
same,solubility with respect to PBS (FIG. 1),[1]; listed as GLP-2 derivatives (11-sugar),linearly improved
same,solubility with respect to PBS (FIG. 1),[1]; listed as glycosylated GLP-2 derivative (11-sugar),improved solubility
same,state of derivative in PBS administration solution,"[1]; mixed with PBS, 0.6 nmol/4 μL",completely dissolved
same,fluorescence in brain section,[2]; 5 minutes after administration,fluorescence was observed
same,fluorescence in brain section,[2]; 10 minutes after administration,fluorescence was observed intensively
same,fluorescence in brain section,[2]; 20 minutes after administration,fluorescence was observed
same,fluorescence in brain section,[2]; 60 minutes after administration,a relatively strong degree of fluorescence was observed
same,fluorescence in brain section,[2]; 90 minutes after administration,fluorescence was not observed
same,retention in brain compared with PAS-CPP-GLP-2 derivative (no sugar),"[2]; intranasal, 5-90 minutes",remains in the brain for a longer time period
same,fluorescence at region around Pr5,[3]; 5 minutes,fluorescence was observed intensely
same,"fluorescence at the other regions (HIP, DMH, OB)",[3]; 5 minutes,very little fluorescence was observed
same,fluorescence at DMH,[3]; 20 minutes,observed clearly
same,fluorescence at HIP,[3]; 20 minutes,fluorescence was observed
same,fluorescence at Pr5,[3]; 20 minutes,florescence was observed
same,fluorescence intensity at OB,[3]; 20 minutes,weak
